US12637454B2, “Heterocyclic monoacylglycerol lipase (MAGL) inhibitors” (Hoffmann-La Roche Inc., priority 2019, dated 2026)

What follows are molecules tested against T1, MAGL (Homo sapiens, UniProt Q99685) (assay: 2-AG assay (MAGL inhibitory activity, hydrolysis of 2-arachidonoylglycerol followed by mass spectrometry)). Conditions: 50 pM MAGL, 8 μM 2-arachidonoylglycerol, 15 min preincubation, 30 min incubation at RT.
T1 sequence (Q99685 1-303): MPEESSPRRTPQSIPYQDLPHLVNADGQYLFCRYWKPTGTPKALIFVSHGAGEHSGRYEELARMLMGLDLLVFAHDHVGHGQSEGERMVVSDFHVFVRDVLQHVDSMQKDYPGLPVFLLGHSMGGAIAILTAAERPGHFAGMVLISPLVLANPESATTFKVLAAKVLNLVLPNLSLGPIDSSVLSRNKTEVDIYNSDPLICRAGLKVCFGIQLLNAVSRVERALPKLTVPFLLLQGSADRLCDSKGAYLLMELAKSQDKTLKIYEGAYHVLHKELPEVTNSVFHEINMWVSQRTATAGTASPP
Format: biochemical
Procedure: Compounds were profiled for MAGL inhibitory activity by determining the enzymatic activity by following the hydrolysis of the natural substrate 2-arachidonoylglycerol (2-AG) resulting in arachidonic acid, which can be followed by mass spectrometry. This assay is hereinafter abbreviated “2-AG assay”.
The 2-AG assay was carried out in 384 well assay plates (PP, Greiner Cat #784201) in a total volume of 20 μL. Compound dilutions were made in 100% DMSO (VWR Chemicals 23500.297) in a polypropylene plate in 3-fold dilution steps to give a final concentration range in the assay from 12.5 μM to 0.8 pM. 0.25 μL compound dilutions (100% DMSO) were added to 9 μL MAGL in assay buffer (50 mM TRIS (GIBCO, 15567-027), 1 mM EDTA (Fluka, 03690-100 mL), 0.01% (v/v) Tween. After shaking, the plate was incubated for 15 min at RT. To start the reaction, 10 μL 2-arachidonoylglycerol in assay buffer was added. The final concentrations in the assay was 50 pM MAGL and 8 μM 2-arachidonoylglyerol. After shaking and 30 min incubation at RT, the reaction was quenched by the addition of […] of ACN containing 4 μM of d8-arachidonic acid. The amount of arachidonic acid was traced by an online SPE system (Agilent Rapidfire) coupled to a triple quadrupole mass spectrometer (Agilent 6460). A C18 SPE cartridge (G9205A) was used in an ACN/water liquid setup. The mass spectrometer was operated in negative electrospray mode following the mass transitions 303.1→259.1 for arachidonic acid and 311.1→267.0 for d8-arachidonic acid. The activity of the compounds was calculated based on the ratio of intensities [arachidonic acid/d8-arachidonic acid].

Molecule | IC50 [nM]
4-[(E)-2-[3-[(7R,9aR)-7-(4-Chlorophenyl)-1,3,4,6,7,8,9,9a-octahydropyrido[1,2-a]pyrazine-2-carbonyl]-2-bromo-phenyl]vinyl]-N-methyl-benzamide and 3-[(E)-2-[4-[(7R,9aR)-7-(4-chlorophenyl)-1,3,4,6,7,8,9,9a-octahydropyrido[1,2-a]pyrazine-2-carbonyl]phenyl]vinyl]-2-bromo-N-methyl-benzamide [Example 31] | 3.72
COc1cccc(C(=O)N2CCN3C[C@@](O)(C4CCCC4)CC[C@@H]3C2)c1Cl (racemic) [Example 25, (2-chloro-3-methoxyphenyl)-[rac-(7R,9aS)-7-cyclopentyl-7-hydroxy-3,4,6,8,9,9a-hexahydro-1H-pyrido[1,2-a]pyrazin-2-yl]methanone] | 548
CC1(O)CCN(c2cccc(C(=O)N3CCN4C[C@@](O)(c5ccc(Cl)cc5)CC[C@@H]4C3)c2Cl)C1 (mixture of isomers) [Example 50, [2-chloro-3-(3-hydroxy-3-methylpyrrolidin-1-yl)phenyl]-[rac-(7R,9aS)-7-(4-chlorophenyl)-7-hydroxy-3,4,6,8,9,9a-hexahydro-1H-pyrido[1,2-a]pyrazin-2-yl]methanone] | 72.4
COc1cccc(C(=O)N2CCN3CC(O)(c4ccc(C(F)(F)F)nc4)CCC3C2)c1Cl (racemic) [Example 72, (2-chloro-3-methoxyphenyl)-[rac-(7R,9aS)-7-hydroxy-7-[6-(trifluoromethyl)pyridin-3-yl]-3,4,6,8,9,9a-hexahydro-1H-pyrido[1,2-a]pyrazin-2-yl]methanone] | 3490
COc1cccc(C(=O)N2CCN3C[C@@](O)(c4ccc(F)c(Cl)c4)CC[C@@H]3C2)c1Cl [Example 1, [(7S,9aR)-7-(3-Chloro-4-fluorophenyl)-7-hydroxy-3,4,6,8,9,9a-hexahydro-1H-pyrido[1,2-a]pyrazin-2-yl]-(2-chloro-3-methoxyphenyl)methanone] | 4.48
O=C(c1cccc(-c2ccn[nH]2)c1Cl)N1CCN2C[C@@](O)(c3ccc(Cl)cc3)CC[C@@H]2C1 [Example 3, [(7S,9aR)-7-(4-chlorophenyl)-7-hydroxy-3,4,6,8,9,9a-hexahydro-1H-pyrido[1,2-a]pyrazin-2-yl]-[2-chloro-3-(1H-pyrazol-5-yl)phenyl]methanone] | 4.31
O=C(c1cccc(-c2ccn[nH]2)c1Cl)N1CCN2C[C@](O)(c3ccc(Cl)cc3)CC[C@H]2C1 [Example 4, [(7R,9aS)-7-(4-chlorophenyl)-7-hydroxy-3,4,6,8,9,9a-hexahydro-1H-pyrido[1,2-a]pyrazin-2-yl]-[2-chloro-3-(1H-pyrazol-5-yl)phenyl]methanone] | 76.3
O=C(c1cccc(-c2c[nH]nc2F)c1Cl)N1CCN2C[C@@](O)(c3ccc(Cl)cc3)CC[C@@H]2C1 [Example 5, [(7S,9aR)-7-(4-chlorophenyl)-7-hydroxy-3,4,6,8,9,9a-hexahydro-1H-pyrido[1,2-a]pyrazin-2-yl]-[2-chloro-3-(3-fluoro-1H-pyrazol-4-yl)phenyl]methanone] | 1.95
COc1ccc(C(=O)N2CCN3C[C@@](O)(c4ccc(Cl)cc4)CC[C@@H]3C2)c(Cl)n1 [Example 7, [(7S,9aR)-7-(4-chlorophenyl)-7-hydroxy-3,4,6,8,9,9a-hexahydro-1H-pyrido[1,2-a]pyrazin-2-yl]-(2-chloro-6-methoxypyridin-3-yl)methanone] | 398
O=C(c1cccc(N2CC(O)C2)c1Cl)N1CCN2C[C@@](O)(c3ccc(Cl)cc3)CC[C@@H]2C1 [Example 9, [(7S,9aR)-7-(4-chlorophenyl)-7-hydroxy-3,4,6,8,9,9a-hexahydro-1H-pyrido[1,2-a]pyrazin-2-yl]-[2-chloro-3-(3-hydroxyazetidin-1-yl)phenyl]methanone] | 16.2
Cn1c(Cl)c(C(=O)N2CCN3C[C@](O)(c4ccc(Cl)cc4)CC[C@H]3C2)ccc1=O [Example 11, 5-[(7R,9aS)-7-(4-chlorophenyl)-7-hydroxy-3,4,6,8,9,9a-hexahydro-1H-pyrido[1,2-a]pyrazine-2-carbonyl]-6-chloro-l-methylpyridin-2-one] | 775

Continued by falling IC50, values first:

IC50 [nM] | Molecule
2960 | Cc1nc(N)ccc1C(=O)N1CCN2C[C@@](O)(c3ccc(Cl)cc3)CC[C@@H]2C1 [Example 8, [(7S,9aR)-7-(4-chlorophenyl)-7-hydroxy-3,4,6,8,9,9a-hexahydro-1H-pyrido[1,2-a]pyrazin-2-yl]-(6-amino-2-methylpyridin-3-yl)methanone]
898 | O=C(c1cccc(OC(F)F)c1Cl)N1CCN2C[C@@](O)(c3ccc(C(F)(F)F)cn3)CC[C@@H]2C1 (stereo in doubt) [Example 37, [(7R,9aR)-7-hydroxy-7-[5-(trifluoromethyl)pyridin-2-yl]-3,4,6,8,9,9a-hexahydro-1H-pyrido[1,2-a]pyrazin-2-yl]-[2-chloro-3-(difluoromethoxy)phenyl]methanone]
678 | COc1cccc(C(=O)N2CCN3C[C@@](O)(C(F)(F)F)CC[C@@H]3C2)c1Cl (racemic) [Example 26, (2-Chloro-3-methoxyphenyl)-[rac-(7R,9aR)-7-hydroxy-7-(trifluoromethyl)-3,4,6,8,9,9a-hexahydro-1H-pyrido[1,2-a]pyrazin-2-yl]methanone]
626 | COc1cccc(C(=O)N2CCN3C[C@@](O)(CC(C)C)CC[C@@H]3C2)c1Cl (racemic) [Example 24, (2-Chloro-3-methoxyphenyl)-[rac-(7R,9aS)-7-hydroxy-7-(2-methylpropyl)-3,4,6,8,9,9a-hexahydro-1H-pyrido[1,2-a]pyrazin-2-yl]methanone]
327 | O=C(c1cccc(OC(F)F)c1Cl)N1CCN2C[C@](O)(c3ccc(C(F)(F)F)cn3)CC[C@H]2C1 (stereo in doubt) [Example 38, [(7S,9aS)-7-hydroxy-7-[5-(trifluoromethyl)pyridin-2-yl]-3,4,6,8,9,9a-hexahydro-1H-pyrido[1,2-a]pyrazin-2-yl]-[2-chloro-3-(difluoromethoxy)phenyl]methanone]
278 | COc1cccc(C(=O)N2CCN3CC(O)(c4ccc(C(F)(F)F)nc4)CCC3C2)c1Cl (racemic) [Example 71, (2-chloro-3-methoxyphenyl)-[rac-(7R,9aR)-7-hydroxy-7-[6-(trifluoromethyl)pyridin-3-yl]-3,4,6,8,9,9a-hexahydro-1H-pyrido[1,2-a]pyrazin-2-yl]methanone]
58.2 | O=C(c1cccc(N2CC(O)C2)c1F)N1CCN2C[C@@](O)(c3ccc(Cl)cc3)CC[C@@H]2C1 [Example 10]
18.8 | COc1cccc(C(=O)N2CCN3C[C@](O)(c4ccc(F)c(Cl)c4)CC[C@H]3C2)c1Cl [Example 2, [(7R,9aS)-7-(3-chloro-4-fluorophenyl)-7-hydroxy-3,4,6,8,9,9a-hexahydro-1H-pyrido[1,2-a]pyrazin-2-yl]-(2-chloro-3-methoxyphenyl)methanone]
17.2 | O=C(c1cccc(-c2c[nH]nc2F)c1Cl)N1CCN2C[C@](O)(c3ccc(Cl)cc3)CC[C@H]2C1 [Example 6, [(7R,9aS)-7-(4-chloropheny1)-7-hydroxy-3,4,6,8,9,9a-hexahydro-1H-pyrido[1,2-a]pyrazin-2-yl]-[2-chloro-3-(3-fluoro-1H-pyrazol-4-yl)phenyl]methanone]
